The data set deals with CCRIS mutagenicity, Ames/micronucleus/aberration tests. In words: CCRIS mutagenicity studies.
Setting [1] is: Test System: AMES SALMONELLA TYPHIMURIUM, Strain/Indicator: TA98, Metabolic Activation: NONE, Method: PREINCUBATION
Setting [2] is: Test System: AMES SALMONELLA TYPHIMURIUM, Strain/Indicator: TA98, Metabolic Activation: NONE, Method: STANDARD PLATE.
Where [3] appears, read: Test System: AMES SALMONELLA TYPHIMURIUM, Strain/Indicator: TA98, Metabolic Activation: RAT, LIVER, S-9, AROCLOR 1254, Method: STANDARD PLATE.
Setting [4] is: Test System: AMES SALMONELLA TYPHIMURIUM, Strain/Indicator: TA100, Metabolic Activation: NONE, Method: PREINCUBATION
Where [5] appears, read: Test System: AMES SALMONELLA TYPHIMURIUM, Strain/Indicator: TA100, Metabolic Activation: NONE, Method: STANDARD PLATE.
[6] abbreviates: Test System: AMES SALMONELLA TYPHIMURIUM, Strain/Indicator: TA100, Metabolic Activation: RAT, LIVER, S-9, AROCLOR 1254, Method: STANDARD PLATE.
Setting [7] is: Test System: AMES SALMONELLA TYPHIMURIUM, Strain/Indicator: TA1535, Metabolic Activation: NONE, Method: STANDARD PLATE.
Setting [8] is: Test System: AMES SALMONELLA TYPHIMURIUM, Strain/Indicator: TA97, Metabolic Activation: NONE, Method: PREINCUBATION

The source made the active and inactive calls. The rule behind the calls is not given here.

In the case of `CN(C)c1ccc(-c2ccc(N(C)C)cc2)cc1`, the mutagenic call is “inactive; negative” under setting [1]; “inactive; negative” under setting [2]; “active; positive” (Test System: AMES SALMONELLA TYPHIMURIUM, Strain/Indicator: TA98, Metabolic Activation: RAT LIVER S-9, AROCLOR 1254, Method: PREINCUBATION); “active; positive” under setting [3]; “inactive; negative” under setting [4]; “inactive; negative” under setting [5]. For the same compound, the mutagenic call reads like this: (Test System: AMES SALMONELLA TYPHIMURIUM, Strain/Indicator: TA100, Metabolic Activation: RAT LIVER S-9, AROCLOR 1254, Method: PREINCUBATION) “inactive; negative”; under setting [6], “inactive; negative”.
Turning to `Cc1ccc2c([N+](=O)[O-])cc[n+]([O-])c2c1`, the mutagenic call (Test System: UDS RODENT PRIMARY CELLS, Strain/Indicator: THY INCORP (NON-S-PHASE), Metabolic Activation: NONE, Method: AUTORADIOGRAPHY) is “active; positive”.
`Nc1ncc2[nH]cnc2n1`: the mutagenic call by setting is: under setting [2], “inactive; negative”; under setting [5], “inactive; negative”; (Test System: CHINESE HAMSTER V-79, Strain/Indicator: V-79 (HGPRT)/6-THIOGUANINE, Metabolic Activation: NONE, Method: STANDARD PLATE) “active; positive”; (Test System: E. COLI, Strain/Indicator: WP2, Metabolic Activation: NONE, Method: STANDARD PLATE) “active; positive”; (Test System: E. COLI, Strain/Indicator: WP2 UVRA, Metabolic Activation: NONE, Method: STANDARD PLATE) “active; positive”; (Test System: MOUSE LYMPHOMA, Strain/Indicator: L5178Y (TK+/TK-), Metabolic Activation: NONE, Method: SUSPENSION/PLATE) “active; positive”.
With `CCN(CC)c1ccc(N=Nc2c(Cl)cc([N+](=O)[O-])cc2Cl)cc1`, the mutagenic call reads like this: under setting [2], “active; positive”; under setting [3], “active; positive”; under setting [5], “inactive; negative”; under setting [6], “inactive; negative”; under setting [7], “inactive; negative”; (Test System: AMES SALMONELLA TYPHIMURIUM, Strain/Indicator: TA1535, Metabolic Activation: RAT, LIVER, S-9, AROCLOR 1254, Method: STANDARD PLATE) “inactive; negative”. Further, the mutagenic call runs as follows: (Test System: AMES SALMONELLA TYPHIMURIUM, Strain/Indicator: TA1537, Metabolic Activation: NONE, Method: STANDARD PLATE) “inactive; negative”; (Test System: AMES SALMONELLA TYPHIMURIUM, Strain/Indicator: TA1537, Metabolic Activation: RAT, LIVER, S-9, AROCLOR 1254, Method: STANDARD PLATE) “inactive; negative”; (Test System: CHINESE HAMSTER OVARY, Strain/Indicator: CHO (HGPRT)/6-THIOGUANINE, Metabolic Activation: NONE) “inactive; negative”; (Test System: CHINESE HAMSTER OVARY, Strain/Indicator: CHO (HGPRT)/6-THIOGUANINE, Metabolic Activation: RAT, LIVER, S-9, AROCLOR 1254) “inactive; negative”; (Test System: UDS RAT HEPATOCYTES, Strain/Indicator: THY INCORP, Metabolic Activation: NONE, Method: AUTORADIOGRAPHY) “inactive; negative”.
For the compound `Cc1ccccc1C#N`, the mutagenic call is, setting by setting: (Test System: AMES SALMONELLA TYPHIMURIUM, Strain/Indicator: TA97, Metabolic Activation: HAMSTER, LIVER, S-9, AROCLOR 1254 (10 OR 30%), Method: PREINCUBATION) “inactive; negative”; under setting [8], “inactive; negative”; (Test System: AMES SALMONELLA TYPHIMURIUM, Strain/Indicator: TA97, Metabolic Activation: RAT, LIVER, S-9, AROCLOR 1254 (10%), Method: PREINCUBATION) “inactive; negative”; (Test System: AMES SALMONELLA TYPHIMURIUM, Strain/Indicator: TA97, Metabolic Activation: RAT, LIVER, S-9, AROCLOR 1254 (30%), Method: PREINCUBATION) “inactive; negative”; (Test System: AMES SALMONELLA TYPHIMURIUM, Strain/Indicator: TA98, Metabolic Activation: HAMSTER, LIVER, S-9, AROCLOR 1254 (10 OR 30%), Method: PREINCUBATION) “inactive; negative”; under setting [1], “inactive; negative”. Further, the mutagenic call reads like this: (Test System: AMES SALMONELLA TYPHIMURIUM, Strain/Indicator: TA98, Metabolic Activation: RAT, LIVER, S-9, AROCLOR 1254 (10 OR 30%), Method: PREINCUBATION) “inactive; negative”; (Test System: AMES SALMONELLA TYPHIMURIUM, Strain/Indicator: TA100, Metabolic Activation: HAMSTER, LIVER, S-9, AROCLOR 1254 (10 OR 30%), Method: PREINCUBATION) “inactive; negative”; under setting [4], “inactive; negative”; (Test System: AMES SALMONELLA TYPHIMURIUM, Strain/Indicator: TA100, Metabolic Activation: RAT, LIVER, S-9, AROCLOR 1254 (10%), Method: PREINCUBATION) “inactive; negative”; (Test System: AMES SALMONELLA TYPHIMURIUM, Strain/Indicator: TA100, Metabolic Activation: RAT, LIVER, S-9, AROCLOR 1254 (30%), Method: PREINCUBATION) “inactive; negative”; (Test System: AMES SALMONELLA TYPHIMURIUM, Strain/Indicator: TA1535, Metabolic Activation: HAMSTER, LIVER, S-9, AROCLOR 1254 (10 OR 30%), Method: PREINCUBATION) “inactive; negative”. The mutagenic call by setting is: (Test System: AMES SALMONELLA TYPHIMURIUM, Strain/Indicator: TA1535, Metabolic Activation: NONE, Method: PREINCUBATION) “inactive; negative”; (Test System: AMES SALMONELLA TYPHIMURIUM, Strain/Indicator: TA1535, Metabolic Activation: RAT, LIVER, S-9, AROCLOR 1254 (10%), Method: PREINCUBATION) “inactive; negative”; (Test System: AMES SALMONELLA TYPHIMURIUM, Strain/Indicator: TA1535, Metabolic Activation: RAT, LIVER, S-9, AROCLOR 1254 (30%), Method: PREINCUBATION) “inactive; negative”; (Test System: MOUSE LYMPHOMA, Strain/Indicator: L5178Y (TK+/TK-), Metabolic Activation: RAT, LIVER, S-9, AROCLOR 1254, Method: SUSPENSION/PLATE) “active; positive. reevaluation of results: positive”; (Test System: Mouse lymphoma, Strain/Indicator: L5178Y (tk+/tk-), Metabolic Activation: None, Method: Suspension/plate) “inactive; negative”.
As for `CC(=O)N(O)c1ccc(Cl)cc1`, the mutagenic call reads like this: under setting [2], “inactive; negative”; under setting [3], “inactive; negative”; under setting [5], “inactive; negative”; under setting [6], “inactive; negative”.
In the case of `COc1cc(C(C)=O)ccc1O`, the mutagenic call runs as follows: under setting [8], “inactive; negative”; (Test System: AMES SALMONELLA TYPHIMURIUM, Strain/Indicator: TA97, Metabolic Activation: RAT, LIVER, S-9, AROCLOR 1254, Method: PREINCUBATION) “inactive; negative”; under setting [1], “inactive; negative”; (Test System: AMES SALMONELLA TYPHIMURIUM, Strain/Indicator: TA98, Metabolic Activation: RAT, LIVER, S-9, AROCLOR 1254, Method: PREINCUBATION) “inactive; negative”; under setting [4], “inactive; negative”; (Test System: AMES SALMONELLA TYPHIMURIUM, Strain/Indicator: TA100, Metabolic Activation: RAT, LIVER, S-9, AROCLOR 1254, Method: PREINCUBATION) “inactive; negative”. The mutagenic call was “inactive; negative” (Test System: AMES SALMONELLA TYPHIMURIUM, Strain/Indicator: TA102, Metabolic Activation: NONE, Method: PREINCUBATION) and “inactive; negative” (Test System: AMES SALMONELLA TYPHIMURIUM, Strain/Indicator: TA102, Metabolic Activation: RAT, LIVER, S-9, AROCLOR 1254, Method: PREINCUBATION).
Take `O=[Se](=O)(O)O`: the mutagenic call runs as follows: under setting [7], “active; positive”; (Test System: AMES SALMONELLA TYPHIMURIUM, Strain/Indicator: TA1535, Metabolic Activation: NONE, Method: STANDARD PLATE (MEDIUM WITH TRIMETAPHOSPHATE IONS)) “active; positive”; (Test System: UDS HUMAN FIBROBLASTS, Strain/Indicator: THY INCORP (NON-S-PHASE), Metabolic Activation: MOUSE, LIVER, S-9, Method: AUTORADIOGRAPHY) “active; positive”; (Test System: UDS HUMAN FIBROBLASTS, Strain/Indicator: THY INCORP (NON-S-PHASE), Metabolic Activation: NONE, Method: AUTORADIOGRAPHY) “active; positive”.

The record behind these values is PubChem BioAssay AID1259407 (Chemical Carcinogenesis Research Information System (CCRIS), 2018).
